The molecules below were run against Granzyme B (human lymphocytes) (Homo sapiens (Human), UniProt P10144) (assay: human Granzyme B biochemical assay). Settings: not given.
Method in brief: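 Enzyme (10 nM working stock, assay buffer with 0.1% BSA) pre-incubated with compound for 30 min at 22 °C, then Ac-IETD-AFC (800 µM working stock) added for 60 min at 22 °C in the dark. Fluorescence read at Ex 400/Em 505 nm; 8-point 3.16-fold series (40 µM top working stock); IC50 from % inhibition versus standard-inhibitor and DMSO controls.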

Chain of Granzyme B (human lymphocytes) (P10144 21-247): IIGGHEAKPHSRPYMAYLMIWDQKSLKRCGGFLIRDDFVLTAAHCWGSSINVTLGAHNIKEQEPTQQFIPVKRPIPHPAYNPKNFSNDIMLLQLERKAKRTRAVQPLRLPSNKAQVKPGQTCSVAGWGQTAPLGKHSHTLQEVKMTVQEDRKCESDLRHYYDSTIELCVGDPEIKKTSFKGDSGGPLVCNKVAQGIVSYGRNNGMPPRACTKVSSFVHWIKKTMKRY

Molecule `CC(C)[C@H](NC(=O)CF)C(=O)N[C@H]1COc2cccc3c2N(C1=O)[C@H](C(=O)NCc1c[nH]nn1)C3` [Compound C102, (1S,8S)-8-[(S)-2-(2-Fluoro-acetylamino)-3-methyl-butyrylamino]-9-oxo-1,2,8,9-tetrahydro-7H-6-oxa-9a-aza-benzo[cd]azulene-1-carboxylic acid (1H-[1,2,3]triazol-4-ylmethyl)-amide] has an IC50 of 0.001 to 0.3 µM.

Same assay, conditions: Granzyme B (human lymphocytes) 5 nM, substrate Ac-IETD-AFC 200 μM, Cpd incubation with enzyme 30 mins, 22° C., read time 60 mins; read-out: IC50

`COC(=O)CC[C@H](NC(=O)[C@@H]1Cc2cccc3c2N1C(=O)[C@@H](NC(=O)[C@@H](NC(C)=O)C(C)C)CC3)C(=O)OC` [Compound C095, (S)-2-{[(2S,5S)-5-((S)-2-Acetylamino-3-methyl-butyrylamino)-4-oxo-1,2,4,5,6,7-hexahydro-azepino[3,2,1-hi]indole-2-carbonyl]-amino}-pentanedioic acid dimethyl ester] and `COC(=O)[C@H](C)NC(=O)[C@@H]1Cc2cccc3c2N1C(=O)[C@@H](NC(=O)[C@@H](NC(C)=O)C(C)C)CC3` [Compound C090, (S)-2-{[(2S,5S)-5-((S)-2-Acetylamino-3-methyl-butyrylamino)-4-oxo-1,2,4,5,6,7-hexahydro-azepino[3,2,1-hi]indole-2-carbonyl]-amino}-propionic acid methyl ester] cannot be ordered by IC50: > 5 µM for the first, > 5 µM for the second.

`CC[C@H](C)[C@H](NC(=O)COCCF)C(=O)N[C@H]1CCc2cccc3c2N(C1=O)[C@H](C(=O)NCc1cccc(C)c1)C3` [Compound C128, (2S,5S)-5-{(2S,3S)-2-[2-(2-Fluoro-ethoxy)-acetylamino]-3-methyl-pentanoylamino}-4-oxo-1,2,4,5,6,7-hexahydro-azepino[3,2,1-hi]indole-2-carboxylic acid 3-methyl-benzylamide] and `CC[C@H](C)[C@H](NC(=O)COCCF)C(=O)N[C@H]1CCc2cccc3c2N(C1=O)[C@H](C(=O)NCc1ccc(C)cc1)C3` [Compound C129, (2S,5S)-5-{(2S,3S)-2-[2-(2-Fluoro-ethoxy)-acetylamino]-3-methyl-pentanoylamino}-4-oxo-1,2,4,5,6,7-hexahydro-azepino[3,2,1-hi]indole-2-carboxylic acid 4-methyl-benzylamide] cannot be ordered by IC50: > 5 µM for the first, > 5 µM for the second.

`CC[C@H](C)[C@H](NC(=O)Cc1ccccc1)C(=O)N[C@H]1CCc2cccc3c2N(C1=O)[C@H](C(=O)NCc1c[nH]nn1)C3` [Compound C017, (2S,5S)-5-((2S,3S)-3-Methyl-2-phenylacetylamino-pentanoylamino)-4-oxo-1,2,4,5,6,7-hexahydro-azepino[3,2,1-hi]indole-2-carboxylic acid(1H-[1,2,3]triazol-4-ylmethyl)-amide] and `CC[C@H](C)[C@H](NC(=O)Cc1cc2ccccc2s1)C(=O)N[C@H]1CCc2cccc3c2N(C1=O)[C@H](C(=O)NCc1c[nH]nn1)C3` [Compound C158, (2S,5S)-5-[(2S,3S)-2-(2-Benzo[b]thiophen-2-yl-acetylamino)-3-methyl-pentanoylamino]-4-oxo-1,2,4,5,6,7-hexahydro-azepino[3,2,1-hi]indole-2-carboxylic acid (1H-[1,2,3]triazol-4-ylmethyl)-amide] fall in the same range of IC50: 0.001 to 0.3 µM for the first, 0.001 to 0.3 µM for the second.

`CC[C@H](C)[C@H](NC(=O)COCCF)C(=O)N[C@H]1CCc2cccc3c2N(C1=O)[C@H](C(=O)NCc1cnsc1)C3` [Compound C118, (2S,5S)-5-{(2S,3S)-2-[2-(2-Fluoro-ethoxy)-acetylamino]-3-methyl-pentanoylamino}-4-oxo-1,2,4,5,6,7-hexahydro-azepino[3,2,1-hi]indole-2-carboxylic acid (isothiazol-4-ylmethyl)-amide] and `CC[C@H](C)[C@H](NC(=O)COCCF)C(=O)N[C@H]1CCc2cccc3c2N(C1=O)[C@H](C(=O)NCc1cccnc1)C3` [Compound C122, (2S,5S)-5-{(2S,3S)-2-[2-(2-Fluoro-ethoxy)-acetylamino]-3-methyl-pentanoylamino}-4-oxo-1,2,4,5,6,7-hexahydro-azepino[3,2,1-hi]indole-2-carboxylic acid (pyridin-3-ylmethyl)-amide] cannot be ordered by IC50: > 5 µM for the first, > 5 µM for the second.

`CC(=O)N[C@H](C(=O)N[C@H]1CCc2cccc3c2N(C1=O)[C@H](C(=O)N[C@H](C)C(=O)O)C3)C(C)C` [Compound C087, (R)-2-{[(2S,5S)-5-((S)-2-Acetylamino-3-methyl-butyrylamino)-4-oxo-1,2,4,5,6,7-hexahydro-azepino[3,2,1-hi]indole-2-carbonyl]-amino}-propionicacid] and `CC(=O)N[C@@H](C)C(=O)N[C@H]1CCc2cccc3c2N(C1=O)[C@H](C(=O)NCc1c[nH]nn1)C3` [Compound C024, (2S,5S)-5-((S)-2-Acetylamino-propionylamino)-4-oxo-1,2,4,5,6,7-hexahydro-azepino[3,2,1-hi]indole-2-carboxylic acid (1H-[1,2,3]triazol-4-ylmethyl)-amide] cannot be ordered by IC50: > 5 µM for the first, > 5 µM for the second.

Compared with `CC(C)[C@H](NC(=O)c1ccc(F)cc1)C(=O)N[C@H]1CCc2cccc3c2N(C1=O)[C@H](C(=O)NCc1c[nH]nn1)C3` [Compound C047, (2S,5S)-5-[(S)-2-(4-Fluoro-benzoylamino)-3-methyl-butyrylamino]-4-oxo-1,2,4,5,6,7-hexahydro-azepino[3,2,1-hi]indole-2-carboxylic acid (1H-[1,2,3]triazol-4-ylmethyl)-amide], `CC[C@H](C)[C@H](NC(=O)c1ccc(OC)cc1)C(=O)N[C@H]1CCc2cccc3c2N(C1=O)[C@H](C(=O)NCc1c[nH]nn1)C3` [Compound C062, (2S,5S)-5-[(2S,3S)-2-(4-Methoxy-benzoylamino)-3-methyl-pentanoylamino]-4-oxo-1,2,4,5,6,7-hexahydro-azepino[3,2,1-hi]indole-2-carboxylic acid(1H-[1,2,3]triazol-4-ylmethyl)-amide] is lower in IC50: 0.301 to 1 µM for the first, 0.001 to 0.3 µM for the second. The second is the more potent here.

First: CC(=O)N[C@H](C(=O)N[C@H]1CCc2cccc3c2N(C1=O)[C@H](C(=O)NCc1c[nH]nn1)C3)C1CC1 [Compound C081, (2S,5S)-5-((S)-2-Acetylamino-2-cyclopropyl-acetylamino)-4-oxo-1,2,4,5,6,7-hexahydro-azepino[3,2,1-hi]indole-2-carboxylic acid (1H-[1,2,3]triazol-4-ylmethyl)-amide]
Second: CC(=O)N[C@H](C(=O)N[C@H]1CCc2cccc3c2N(C1=O)[C@H](C(=O)NCc1c[nH]nn1)C3)C1CCC1 [Compound C083, (2S,5S)-5-((S)-2-Acetylamino-2-cyclobutyl-acetylamino)-4-oxo-1,2,4,5,6,7-hexahydro-azepino[3,2,1-hi]indole-2-carboxylic acid (1H-[1,2,3]triazol-4-ylmethyl)-amide]
The IC50 of the first is higher: 0.301 to 1 µM for the first, 0.001 to 0.3 µM for the second. The second is the more potent here.

`CC[C@H](C)[C@H](NC(=O)COCCF)C(=O)N[C@H]1CCc2cccc3c2N(C1=O)[C@H](C(=O)NCc1ccn[nH]1)C3` [Compound C149, (2S,5S)-5-{(2S,3S)-2-[2-(2-Fluoro-ethoxy)-acetylamino]-3-methyl-pentanoylamino}-4-oxo-1,2,4,5,6,7-hexahydro-azepino[3,2,1-hi]indole-2-carboxylic acid (2H-pyrazol-3-ylmethyl)-amide] and `CC[C@H](C)[C@H](NC(=O)COCCF)C(=O)N[C@H]1CCc2cccc3c2N(C1=O)[C@H](C(=O)NCc1cnco1)C3` [Compound C111, (2S,5S)-5-{(2S,3S)-2-[2-(2-Fluoro-ethoxy)-acetylamino]-3-methyl-pentanoylamino}-4-oxo-1,2,4,5,6,7-hexahydro-azepino[3,2,1-hi]indole-2-carboxylic acid (oxazol-5-ylmethyl)-amide] cannot be ordered by IC50: > 5 µM for the first, > 5 µM for the second.

First: O=C(Cc1csc2ccccc12)N[C@H](C(=O)N[C@H]1CCc2cccc3c2N(C1=O)[C@H](C(=O)NCc1c[nH]nn1)C3)C1CCCCC1 [Compound C078, (2S,5S)-5-[(S)-2-(2-Benzo[b]thiophen-3-yl-acetylamino)-2-cyclohexyl-acetylamino]-4-oxo-1,2,4,5,6,7-hexahydro-azepino[3,2,1-hi]indole-2-carboxylic acid (1H-[1,2,3]triazol-4-ylmethyl)-amide]
Second: CC(=O)N[C@H](C(=O)N[C@H]1CCc2cccc3c2N(C1=O)[C@H](C(=O)NCc1c[nH]nn1)C3)C1CCCC1 [Compound C077, (2S,5S)-5-((S)-2-Acetylamino-2-cyclopentyl-acetylamino)-4-oxo-1,2,4,5,6,7-hexahydro-azepino[3,2,1-hi]indole-2-carboxylic acid (1H-[1,2,3]triazol-4-ylmethyl)-amide]
The IC50 of the first is higher: 0.301 to 1 µM for the first, 0.001 to 0.3 µM for the second.

First: O=C(Cc1ccccc1)N[C@@H](Cc1ccccc1)C(=O)N[C@H]1CCc2cccc3c2N(C1=O)[C@H](C(=O)NCc1c[nH]nn1)C3 [Compound C015, (2S,5S)-4-Oxo-5-((S)-3-phenyl-2-phenylacetylamino-propionylamino)-1,2,4,5,6,7-hexahydro-azepino[3,2,1-hi]indole-2-carboxylic acid (1H-[1,2,3]triazol-4-ylmethyl)-amide]
Second: O=C(N[C@@H](CO)C(=O)N[C@H]1CCc2cccc3c2N(C1=O)[C@H](C(=O)NCc1c[nH]nn1)C3)c1ccccc1 [Compound C040, (2S,5S)-5-((S)-2-Benzoylamino-3-hydroxy-propionylamino)-4-oxo-1,2,4,5,6,7-hexahydro-azepino[3,2,1-hi]indole-2-carboxylic acid (1H-[1,2,3]triazol-4-ylmethyl)-amide]
The IC50 of the first is lower: 1 to 5 µM for the first, > 5 µM for the second.

`CCC(C)[C@H](NC(=O)COCCF)C(=O)N[C@H]1CCc2cccc3c2N(C1=O)[C@H](C(=O)NCc1ccoc1)C3` (stereo in doubt) [Compound C108, (2S,5S)-5-{(2S,3R)-2-[2-(2-Fluoro-ethoxy)-acetylamino]-3-methyl-pentanoylamino}-4-oxo-1,2,4,5,6,7-hexahydro-azepino[3,2,1-hi]indole-2-carboxylic acid (furan-3-ylmethyl)-amide] and `O=C(O)CC[C@H](NC(=O)c1ccccc1)C(=O)N[C@H]1CCc2cccc3c2N(C1=O)[C@H](C(=O)NCc1c[nH]nn1)C3` [Compound C041, (S)-4-Benzoylamino-4-{(2S,5S)-4-oxo-2-[(1H-[1,2,3]triazol-4-ylmethyl)-carbamoyl]-1,2,4,5,6,7-hexahydro-azepino[3,2,1-hi]indol-5-ylcarbamoyl}-butyric acid] cannot be ordered by IC50: > 5 µM for the first, > 5 µM for the second.
